Biological target: T1, human mAChR M1 (Homo sapiens, UniProt P11229)
T1 construct: host or cells: CHO-K1
T1 sequence (P11229 1-460): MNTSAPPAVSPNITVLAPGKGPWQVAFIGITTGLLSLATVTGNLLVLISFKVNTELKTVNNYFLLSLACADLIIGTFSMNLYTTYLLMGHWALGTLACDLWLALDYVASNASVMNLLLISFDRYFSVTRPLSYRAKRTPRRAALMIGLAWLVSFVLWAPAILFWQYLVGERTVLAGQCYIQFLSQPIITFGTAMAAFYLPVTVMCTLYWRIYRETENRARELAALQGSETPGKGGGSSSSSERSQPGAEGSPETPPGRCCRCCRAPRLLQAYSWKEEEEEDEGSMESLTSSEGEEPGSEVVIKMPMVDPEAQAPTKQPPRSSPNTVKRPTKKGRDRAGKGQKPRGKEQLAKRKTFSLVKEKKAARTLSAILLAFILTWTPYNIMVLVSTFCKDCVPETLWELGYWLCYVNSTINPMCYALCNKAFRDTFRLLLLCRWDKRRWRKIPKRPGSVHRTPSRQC
Assay: mAChR M1 cell-based functional assay (calcium mobilization, Fluo-4, FDSS)
Details: CHO-K1 cells stably expressing hM1; for Emax: EC20 acetylcholine response, read-out: Human M1 Emax; for EC50: positive allosteric modulator activity as increase in the EC20 acetylcholine response
Experimental: Chinese hamster ovary (CHO-K1) cells stably expressing rat (r)M1 were purchased from the American Type Culture Collection and cultured according to their indicated protocol. […] To make stable rM2, hM2, rM3, hM4, and rM4 cell lines for use in calcium mobilization assays, these cells also were stably transfected with a chimeric G-protein (Gqi5) (provided by B. R. Conklin, University of California, San Francisco) using Lipofectamine 2000. rM1, hM1, rM3, hM3, rM5, and hM5 cells were grown in Ham's F-12 medium containing 10% heat-inactivated fetal bovine serum (FBS), 20 mM HEPES, and 50 μg/mL G418 sulfate. rM2-Gqi5, hM2-Gqi5, and hM4-Gqi5 cells were grown in the same medium also containing 500 μg/mL Hygromycin B. Stable rM4-Gqi5 cells were grown in DMEM containing 10% heat-inactivated FBS, 20 mM HEPES, 400 μg/mL G418 sulfate, and 500 μg/mL Hygromycin B.
For high throughput measurement of agonist-evoked increases in intracellular calcium, CHO-K1 cells stably expressing muscarinic receptors were plated in growth medium lacking G418 and hygromycin at 15,000 cells/20 μL/well in Greiner 384-well black-walled, tissue culture (TC)-treated, clear-bottom plates (VWR). Cells were incubated overnight at 37° C. and 5% CO2. […] Compound master plates were formatted in an 11 point CRC format (1:3 dilutions) in 100% DMSO with a starting concentration of 10 mM using the BRAVO liquid handler (Agilent). Test compound CRCs were then transferred to daughter plates (240 nL) using the Echo acoustic plate reformatter (Labcyte, Sunnyvale, Calif.) and then diluted into assay buffer (40 μL) to a 2× stock using a Thermo Fisher Combi (Thermo Fisher Scientific, Waltham, Mass.).
Calcium flux was measured using the Functional Drug Screening System (FDSS) 6000 (Hamamatsu Corporation, Tokyo, Japan) as an increase in the fluorescent static ratio. Compounds were applied to cells (20 μL, 2×) using the automated system of the FDSS 6000 at 4 s into the 300 s protocol and the data were collected at 1 Hz. […] Agonist activity was analyzed as a concentration-dependent increase in calcium mobilization upon compound addition. Positive allosteric modulator activity was analyzed as a concentration-dependent increase in the EC20 acetylcholine response. Antagonist activity was analyzed as a concentration-dependent decrease in the EC80 acetylcholine response. Concentration-response curves were generated using a four-parameter logistical equation in XLfit curve fitting software (IDBS, Bridgewater, N.J.) for Excel (Microsoft, Redmond, Wash.) or Prism (GraphPad Software, Inc., San Diego, Calif.).
The compound numbers correspond to the compound numbers used in Table 1.

| Compound | Emax [%] | EC50 [nM] |
| --- | --- | --- |
| CCn1ccc2c(Cc3ccc(-n4cccn4)cc3)cc(C(=O)N[C@H]3CC[C@@H]3O)nc21 [Compound 13, 1-ethyl-N-[(1S,2S)-2-hydroxycyclobutyl]-4-[(4-pyrazol-1-ylphenyl)methyl]pyrrolo[2,3-b]pyridine-6-carboxamide] | 70.7 | 410 |
| Cc1nc(-c2ccc(Cc3cc(C(=O)N[C@H]4CCOC4)nc4sccc34)cc2)co1 [Compound 136, 4-[[4-(2-methyloxazol-4-yl)phenyl]methyl]-N-[(3S)-tetrahydrofuran-3-yl]thieno[2,3-b]pyridine-6-carboxamide] | 60.6 | 620 |
| Cn1ccc(-c2ccc(Cc3cc(C(=O)NC4CCOC(C)(C)C4)nc4sccc34)cn2)n1 (stereo not drawn) [Compound 103, N-(2,2-dimethyltetrahydropyran-4-yl)-4-[[6-(1-methylpyrazol-3-yl)-3-pyridyl]methyl]thieno[2,3-b]pyridine-6-carboxamide] | 60.5 | 70 |
| Cn1ccc(-c2ccc(Cc3cc(C(=O)NC4CC(F)(F)C4)nc4c3ccn4C)cn2)n1 [Compound 154, N-(3,3-difluorocyclobutyl)-1-methyl-4-[[6-(1-methylpyrazol-3-yl)-3-pyridyl]methyl]pyrrolo[2,3-b]pyridine-6-carboxamide] | 66.1 | 2530 |
| Cn1ccc2c(Cc3ccc(-c4nccs4)cc3)cc(C(=O)NC3CCOCC3(C)C)nc21 (stereo not drawn) [Compound 67] | 61.2 | 1390 |
| Cn1ccc2c(Cc3ccc(-c4nccs4)cc3)cc(C(=O)N[C@H]3CCOC[C@@H]3O)nc21 [Compound 59, N-[(3R,4S)-3-hydroxytetrahydropyran-4-yl]-1-methy1-4-[(4-thiazol-2-ylphenyl)methyl]pyrrolo[2,3-b]pyridine-6-carboxamide] | 57.3 | 30 |
| Cn1ccc(-c2ccc(Cc3cc(C(=O)NC4CC(F)C4)nc4sccc34)cc2)n1 (stereo not drawn) [Compound 97, N-(3-fluorocyclobutyl)-4-[[4-(1-methylpyrazol-3-yl)phenyl]methyl]thieno[2,3-b]pyridine-6-carboxamide] | 65.9 | 140 |
| O=C(NCC1CCOCC1)c1cc(Cc2ccc(-n3cccn3)cc2)c2ccsc2n1 [Compound 76, 4-[(4-pyrazol-1-ylphenyl)methyl]-N-(tetrahydropyran-4-ylmethyl)thieno[2,3-b]pyridine-6-carboxamide] | 68.8 | 420 |
| Cn1ccc2c(Cc3ccc(-c4nccs4)cc3)cc(C(=O)N[C@H]3CCC[C@@H]3O)nc21 [Compound 64, N-[(1S,2S)-2-hydroxycyclopentyl]-1-methyl-4-[(4-thiazol-2-ylphenyl)methyl]pyrrolo[2,3-b]pyridine-6-carboxamide] | 57.2 | 33600 |
| Cn1ccc(-c2ccc(Cc3cc(C(=O)NC4CC5(COC5)C4)nc4sccc34)cn2)n1 [Compound 109, 4-[[6-(1-methylpyrazol-3-yl)-3-pyridyl]methyl]-N-(2-oxaspiro[3.3]heptan-6-yl)thieno[2,3-b]pyridine-6-carboxamide] | 56.8 | 150 |
| Cn1ccc(-c2ccc(Cc3cc(C(=O)NCC4CCOCC4)nc4sccc34)cn2)n1 [Compound 107, 4-[[6-(1-methylpyrazol-3-yl)-3-pyridyl]methyl]-N-(tetrahydropyran-4-ylmethyl)thieno[2,3-b]pyridine-6-carboxamide] | 57.3 | 90 |
| Cn1cc(-c2ccc(Cc3cc(C(=O)NC4CCOCC4(C)C)nc4sccc34)cn2)cn1 (stereo not drawn) [Compound 117, N-(3,3-dimethyltetrahydropyran-4-yl)-4-[[6-(1-methylpyrazol-4-yl)-3-pyridyl]methyl]thieno[2,3-b]pyridine-6-carboxamide] | 55.7 | 150 |
| Cn1ccc2c(Cc3ccc(-n4cccn4)cc3)cc(C(=O)NC3CCOCC3)nc21 [Compound 18, 1-methyl-4-[(4-pyrazol-1-ylphenyl)methyl]-N-tetrahydropyran-4-yl-pyrrolo[2,3-b]pyridine-6-carboxamide] | 73.1 | 180 |
| Cn1ncc2c(Cc3ccc(-c4cscn4)cc3)cc(C(=O)N[C@H]3CCOC[C@@H]3O)nc21 [Compound 27, N-[(3R,4S)-3-hydroxytetrahydropyran-4-yl]-1-methyl-4-[(4-thiazol-4-ylphenyl)methyl]pyrazolo[3,4-b]pyridine-6-carboxamide] | 75.1 | 70 |
| COCCNC(=O)c1cc(Cc2ccc(-n3cccn3)cc2)c2ccsc2n1 [Compound 85, N-(2-methoxyethyl)-4-[(4-pyrazol-1-ylphenyl)methyl]thieno[2,3-b]pyridine-6-carboxamide] | 58.6 | 70 |
| CC1COCCC1NC(=O)c1cc(Cc2ccc(-c3ccn(C)n3)nc2)c2ccsc2n1 (stereo not drawn) [Compound 106, 4-[[6-(1-methylpyrazol-3-yl)-3-pyridyl]methyl]-N-(3-methyltetrahydropyran-4-yl)thieno[2,3-b]pyridine-6-carboxamide] | 58.4 | 110 |
| Cn1ncc2c(Cc3ccc(-c4cscn4)cc3)cc(C(=O)NC3CCOCC3)nc21 [Compound 1, 1-methyl-N-tetrahydropyran-4-yl-4-[(4-thiazol-4-ylphenyl)methyl]pyrazolo[3,4-b]pyridine-6-carboxamide] | 69 | 1420 |
| CC1COCCC1NC(=O)c1cc(Cc2ccc(-c3cnn(C)c3)nc2)c2ccsc2n1 (stereo not drawn) [Compound 118, 4-[[6-(1-methylpyrazol-4-yl)-3-pyridyl]methyl]-N-(3-methyltetrahydropyran-4-yl)thieno[2,3-b]pyridine-6-carboxamide] | 52.2 | 70 |
| Cn1ccc(-c2ccc(Cc3cc(C(=O)N[C@H]4CCOC[C@@H]4O)nc4c3ccn4C)cc2)n1 [Compound 37, N-[(3R,4S)-3-hydroxytetrahydropyran-4-yl]-1-methyl-4-[[4-(1-methylpyrazol-3-yl)phenyl]methyl]pyrrolo[2,3-b]pyridine-6-carboxamide] | 76.7 | 60 |
| Cn1cc(-c2ccc(Cc3cc(C(=O)N[C@H]4CC[C@@H]4O)nc4c3ccn4C)cn2)cn1 [Compound 50, N-[(1S,2S)-2-hydroxycyclobutyl]-1-methyl-4-[[6-(1-methylpyrazol-4-yl)-3-pyridyl]methyl]pyrrolo[2,3-b]pyridine-6-carboxamide] | 86.2 | 380 |
| Cn1ccc(-c2ccc(Cc3cc(C(=O)NC4CCOCC4)nc4c3ccn4C)cc2)n1 [Compound 39, 1-methy1-4-[[4-(1-methylpyrazol-3-yl)phenyl]methyl]-N-tetrahydropyran-4-yl-pyrrolo[2,3-b]pyridine-6-carboxamide] | 81.2 | 750 |
| Cn1ccc2c(Cc3ccc(-n4cccn4)cc3)cc(C(=O)N[C@H]3CC[C@@H]3O)nc21 [Compound 20, N-[(1S,2S)-2-hydroxycyclobutyl]-1-methy1-4-[(4-pyrazol-1-ylphenyl)methyl]pyrrolo[2,3-b]pyridine-6-carboxamide] | 73.3 | 390 |
| Cn1ncc2c(Cc3ccc(-n4cccn4)cc3)cc(C(=O)NC3CCOCC3)nc21 [Compound 5, 1-methyl-4-[(4-pyrazol-1-ylphenyl)methyl]-N-tetrahydropyran-4-yl-pyrazolo[3,4-b]pyridine-6-carboxamide] | 67.9 | 5940 |
| Cn1ccc(-c2ccc(Cc3cc(C(=O)N[C@H]4CCC[C@@H]4O)nc4c3ccn4C)cn2)n1 [Compound 153, N-[(1S,2S)-2-hydroxycyclopentyl]-1-methyl-4-[[6-(1-methylpyrazol-3-yl)-3-pyridyl]methyl]pyrrolo[2,3-b]pyridine-6-carboxamide] | 75.1 | 190 |
